Measured values reported in publication PMC3986099, “Development of a Radioiodinated Triazolopyrimidine Probe for Nuclear Medical Imaging of Fatty Acid Binding Protein 4” (PLoS ONE, 2014).

How the values were obtained:
Assay in all cases: Selectivity binding assay with FABP immobilized on Ni-NTA magnetic agarose beads
his-tagged FABP3 = target: T1, his-tagged FABP3 (Homo sapiens, UniProt P05413); settings: immobilized FABP3, 2 hr, room temperature
T1 construct: purchased Cayman Chemical Company
Method: (§1) For the selectivity binding assay, his-tagged FABP3 (0.75 mg/ml), FABP4 (0.75 mg/ml) and FABP5 (0.70 mg/ml) in 50 mM phosphate buffer containing 100 mM NaCl (20% glycerol, v/v, pH = 7.2) were used. Immobilization was performed following the manufacturer's procedures. Each solution of his-tagged FABP3 ([…], 1.5 µg), FABP4 (0.002 ml, 1.5 µg) or FABP5 (0.002 ml, 1.4 µg) was incubated with 0.02 ml Ni-NTA Magnetic Agarose Beads (Qiagen) and 0.5 ml protein binding buffer (50 mM NaH2PO4, 300 mM NaCl, 10 mM imidazole, pH = 8.0) at room temperature for 1 hr. After supernatant removal, protein binding buffer with 1% BSA was added, and the mixture was incubated at room temperature for 30 min. After removal of the supernatant, 0.4 ml of interaction buffer (50 mM NaH2PO4, 300 mM NaCl, 10 mM imidazole, and 0.005% Tween, v/v, pH = 8.0) and 0.05 ml [^125I]TAP1 (0.01 MBq) in interaction buffer (5% ethanol, v/v) were added. For measurement of non-specific binding, 0.05 ml of nonradioactive TAP1 in interaction buffer (5% ethanol, v/v, 11.3 µM) was added with the [^125I]TAP1. After incubation at room temperature for 2 hr, the supernatants were removed, and the beads washed with interaction buffer (5% ethanol, v/v). The radioactivity of beads in the tubes was measured with a well-type γ-counter (1480 Wizard3, PerkinElmer Japan Co., Osaka, Japan). Binding ratios were calculated as (radioactivity of beads)/(total applied radioactivity)/(protein abundance on beads)×100 (%Dose/µg protein).

his-tagged FABP5 = target: T2, his-tagged FABP5 (Homo sapiens, UniProt Q01469); settings: immobilized FABP5, 2 hr, room temperature
T2 construct: purchased Cayman Chemical Company
Method: as §1

his-tagged FABP4 = target: T3, his-tagged FABP4 (Homo sapiens, UniProt P15090)
T3 construct: purchased Cayman Chemical Company
Method: as §1

T3 sequence (P15090 whole entry): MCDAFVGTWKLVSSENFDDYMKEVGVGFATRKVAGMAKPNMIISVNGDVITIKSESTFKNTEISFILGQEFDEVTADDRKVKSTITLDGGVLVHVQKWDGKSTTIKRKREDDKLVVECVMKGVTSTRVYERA
T2 sequence (Q01469 whole entry): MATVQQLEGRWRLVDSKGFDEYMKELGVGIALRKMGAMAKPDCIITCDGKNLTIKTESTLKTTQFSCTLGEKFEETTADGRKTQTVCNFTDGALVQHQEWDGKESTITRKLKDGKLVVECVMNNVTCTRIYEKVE
T1 sequence (P05413 whole entry): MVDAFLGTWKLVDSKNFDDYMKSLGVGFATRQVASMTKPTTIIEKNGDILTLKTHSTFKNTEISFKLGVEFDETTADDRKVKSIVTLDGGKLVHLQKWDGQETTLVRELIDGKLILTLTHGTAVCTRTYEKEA

binding to FABP3 (his-tagged FABP3): 1.4±0.5 % dose/µg protein
binding to FABP5 (his-tagged FABP5): 0.5±0.3 % dose/µg protein
FABP4 binding relative to FABP3 (his-tagged FABP4; FABP4 over FABP3): 11.5 fold
FABP4 binding relative to FABP5 (his-tagged FABP4; FABP4 over FABP5): 33.2 fold
binding to FABP4 (his-tagged FABP4; immobilized FABP4, 2 hr, room temperature): 16.3±3.4 % dose/µg protein
SMILES: O=c1cc(COc2cccc([125I])c2)[nH]c2nc(-c3ccccc3)nn12 [[^125I]TAP1]
